These results are taken from ChEMBL document CHEMBL5329182, “Design, Synthesis, anti-inflammatory activity Evaluation, preliminary exploration of the Mechanism, molecule Docking, and structure-activity relationship analysis of batatasin III analogs” (Bioorg Med Chem Lett, 2023).

Data set [1] can be described thus: Cytotoxicity against mouse RAW264.7 cells assessed as cell survival rate at 50 uM by MTT assay relative to control. Type of data set: toxicity, cell-based. To be noted: read-out: Activity. On the technique in general: Tetrazolium assays rely on reduction of a dye to a coloured formazan, in cell work by metabolically active cells.
For data set [2], the system named is RAW264.7. Description: Antiinflammatory activity against LPS-stimulated mouse RAW264.7 cells assessed as NO emission at 50 uM (reference value: 20.56 +/-0.06%). The data set is classed as functional.
Data set [3] relates to RAW264.7. Nature of the data set: Antiinflammatory activity against mouse RAW264.7 cells assessed as inhibition of NO production at 50 uM relative to control. Type of data set: functional.
Data set [4] has as its system RAW264.7. Nature of the data set: Antiinflammatory activity against mouse RAW264.7 cells assessed as inhibition of NO release. The data set is classed as functional, cell-based.
Data set [5] in a line: Cytotoxicity against mouse RAW264.7 cells assessed as reduction in cell survival by MTT assay. Type of data set: toxicity, cell-based.
A short description of data set [6]: Cytotoxicity against mouse RAW264.7 cells assessed as cell survival rate at 20 uM by MTT assay relative to control. Type of data set: toxicity, cell-based. As to conditions: read-out: Activity.
In data set [7] the test system is RAW264.7. Description: Antiinflammatory activity against LPS-stimulated mouse RAW264.7 cells assessed as NO emission at 20 uM (reference value: 20.56 +/-0.06%). The data set is classed as functional.
The test system of data set [8] is RAW264.7. Nature of the data set: Antiinflammatory activity against mouse RAW264.7 cells assessed as inhibition of NO production at 20 uM relative to control. Type of data set: functional.
Data set [9] concerns RAW264.7. Description: Antiinflammatory activity against LPS-stimulated mouse RAW264.7 cells assessed as reduction in iNOS protein expression by Western blot analysis. Type of data set: functional, cell-based. To be noted: dose 5-20 µM.
For data set [10], the target named is Transcription factor p65 (Mus musculus) (UniProt Q04207). Nature of the data set: Inhibition of p65 phosphorylation in LPS-stimulated mouse RAW264.7 cells by Western blot analysis. The data set is classed as cell-based. As to conditions: dose 5-20 µM. (In western blotting, separated proteins are transferred to a membrane and probed.)
Sequence of Transcription factor p65 (Mus musculus) (Q04207 whole entry): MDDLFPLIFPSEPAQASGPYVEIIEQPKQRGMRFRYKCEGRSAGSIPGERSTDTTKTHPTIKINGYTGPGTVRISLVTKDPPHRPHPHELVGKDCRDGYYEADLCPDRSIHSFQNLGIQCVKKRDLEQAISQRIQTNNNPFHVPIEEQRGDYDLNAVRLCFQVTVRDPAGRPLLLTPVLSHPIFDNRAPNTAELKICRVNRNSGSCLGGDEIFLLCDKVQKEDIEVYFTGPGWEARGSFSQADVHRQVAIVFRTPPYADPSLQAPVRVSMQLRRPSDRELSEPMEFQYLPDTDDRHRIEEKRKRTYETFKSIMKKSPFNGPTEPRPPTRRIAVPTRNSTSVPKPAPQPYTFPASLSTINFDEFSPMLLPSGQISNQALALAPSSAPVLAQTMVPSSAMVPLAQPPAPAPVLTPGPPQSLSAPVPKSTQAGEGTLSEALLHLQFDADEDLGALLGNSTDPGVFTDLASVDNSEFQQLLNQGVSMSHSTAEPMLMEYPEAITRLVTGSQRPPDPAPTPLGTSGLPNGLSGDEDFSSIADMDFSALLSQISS
Data set [11] concerns RAW264.7. Nature of the data set: Antiinflammatory activity against LPS-stimulated mouse RAW264.7 cells assessed as reduction in beta-catenin protein expression by Western blot analysis. Type of data set: functional, cell-based. As to conditions: dose 5-20 µM.

Take `Oc1cccc(CCc2cc(O)cc(O)c2)c1`: the viability at 50 µM in data set [1] turned out to be 110%. Moreover, the Activity in the data set on RAW264.7 [2] is 14.12 µM. In addition, the inhibition (commonly the drop in the measured response relative to a control, in per cent) at 50 µM with RAW264.7 [3] was 31.4%. Moreover, the 50% inhibitory concentration (IC50) (commonly the concentration at which inhibition is half-maximal) in the data set on RAW264.7 [4] was 48.2 µM.
`COc1cc(CCc2cc(C(C)(C)C)cc(C(C)(C)C)c2)cc(OC)c1`: the viability at 50 µM in data set [1] came to 114%. Also, the Activity with RAW264.7 [2] stood at 16.82 µM. Further, the inhibition at 50 µM in the data set on RAW264.7 [3] was determined as 18.2%. For the same compound, the IC50 with RAW264.7 [4] was greater than 50 µM.
With `COc1cc(CCc2cccnc2)cc(OC)c1`, in data set [1], the viability at 50 µM turned out to be 97.8%. Further, the Activity with RAW264.7 [2] is 17.72 µM. Also, in the data set with RAW264.7 [3], the inhibition at 50 µM was 13.8%. Besides, the IC50 in the data set on RAW264.7 [4] is greater than 50 µM.
The like results for `COc1cc(/C=C/c2cccc(C#N)c2)cc(OC)c1` were, in that order, 114%, 18.22 µM, 11.4% and greater than 50 µM.
Taken in the same sequence, the figures for `COc1cc(/C=C/c2cccc([N+](=O)[O-])c2)cc(OC)c1` were 104%, 17.5 µM, 14.9% and greater than 50 µM.
Taken in the same sequence, the figures for `COc1cc(CCc2cccc(N)c2)cc(OC)c1` were 104%, 15.2 µM, 26.1% and 55.4 µM.
Take `Oc1cc(O)cc(CCc2cccnc2)c1`: the viability at 50 µM in data set [1] was 98.9%. Further, the Activity in the data set with RAW264.7 [2] is 18.06 µM. The inhibition at 50 µM in the data set on RAW264.7 [3] turned out to be 12.2%. The IC50 with RAW264.7 [4] was greater than 50 µM.
Take `COc1cc(CCc2cccc(C)c2)cc(OC)c1`: in [1], the viability at 50 µM stood at 109%. In addition, in the data set on RAW264.7 [2], the Activity amounted to 16.28 µM. Besides, the inhibition at 50 µM in the data set on RAW264.7 [3] was 20.9%. Further, in the data set with RAW264.7 [4], the IC50 turned out to be 58.3 µM.
The like results for `COc1cc(CCc2ccco2)cc(OC)c1` were, in that order, 103%, 21.18 µM, -2.98% and greater than 50 µM.
The like results for `O=[N+]([O-])c1cccc(/C=C/c2cc(O)cc(O)c2)c1` were, in that order, 104%, 15.32 µM, 25.5% and 44.5 µM.
The like results for `COc1cc(CCc2ccccc2)cc(OC)c1` were, in that order, 99.5%, 19.3 µM, 6.16% and greater than 50 µM.
Take `COc1cc(/C=C/c2cccc(Cl)c2)cc(OC)c1`: the viability at 50 µM in [1] was 97.8%. Also, the Activity with RAW264.7 [2] worked out at 18.96 µM. Moreover, the inhibition at 50 µM in the data set on RAW264.7 [3] amounted to 7.82%. The half-inhibitory concentration (IC50) in the data set with RAW264.7 [4] was greater than 50 µM.
The like results for `COc1cc(CCc2ccc(C(C)(C)C)cc2)cc(OC)c1` were, in that order, 106%, 17.5 µM, 14.9% and greater than 50 µM.
The like results for `COc1cc(CCc2cccc(C(F)(F)F)c2)cc(OC)c1` were, in that order, 103%, 16.54 µM, 19.6% and greater than 50 µM.
The like results for `COc1cc(O)cc(CCc2cccc(O)c2)c1` [BATATASIN III] were, in that order, 106%, 16.14 µM, 21.5% and greater than 50 µM.
As for `C[C@@H]1C[C@H]2[C@@H]3CCC4=CC(=O)C=C[C@]4(C)[C@@]3(F)[C@@H](O)C[C@]2(C)[C@@]1(O)C(=O)CO` [DEXAMETHASONE], the viability at 50 µM in data set [1] came out at 107%. Also, the Activity in the data set with RAW264.7 [2] came to 15.05 µM. Besides, the inhibition at 50 µM in the data set on RAW264.7 [3] was determined as 26.9%. Further, in the data set with RAW264.7 [4], the IC50 is greater than 50 µM.
`COc1cc(CCc2cccc(C#N)c2)cc(OC)c1`: in data set [1], the viability at 50 µM worked out at 105%. Further, the Activity in the data set on RAW264.7 [2] amounted to 21.8 µM. Also, the inhibition at 50 µM in the data set with RAW264.7 [3] was -5.99%. In addition, in the data set on RAW264.7 [4], the IC50 is greater than 50 µM.
The like results for `COc1cccc(/C=C/c2cc(OC)cc(OC)c2)c1` were, in that order, 97.2%, 16.82 µM, 18.2% and greater than 50 µM.
`CC(C)(C)c1ccc(CCc2cc(O)cc(O)c2)cc1`: the viability at 50 µM in data set [1] is 106%. In addition, the Activity in the data set on RAW264.7 [2] worked out at 9.74 µM. In addition, the inhibition at 50 µM with RAW264.7 [3] turned out to be 52.6%. Further, the IC50 with RAW264.7 [4] was determined as 23.7 µM.
The like results for `Oc1cc(O)cc(CCc2ccccc2)c1` [DIHYDROPINOSYLVIN] were, in that order, 102%, 16.86 µM, 18% and greater than 50 µM.
In the case of `CC(C)(C)c1cc(CCc2cc(O)cc(O)c2)cc(C(C)(C)C)c1`, the CC50 (as a rule, the concentration that lowers cell viability or growth by half) in [5] was found to be 34.3 µM. Also, the viability at 20 µM in [6] worked out at 99.1%. In addition, the values for the Activity in the data set with RAW264.7 [7], in the data set on RAW264.7 [9] and with RAW264.7 [11] were 10.08 µM, “Dose-Dependent Effect” and “Dose-Dependent Effect”, respectively. Also, in the data set on RAW264.7 [8], the inhibition at 20 µM is 51%. Further, in the data set on RAW264.7 [4], the IC50 was found to be 13 µM. In addition, the inhibition entry in data set [10] is “Dose-Dependent Effect”.
`COc1cc(/C=C/c2cc(C(C)(C)C)cc(C(C)(C)C)c2)cc(OC)c1`: the viability at 50 µM in data set [1] amounted to 104%. For the same compound, in the data set with RAW264.7 [2], the Activity stood at 17.02 µM. Further, the inhibition at 50 µM in the data set on RAW264.7 [3] worked out at 17.2%. The IC50 in the data set on RAW264.7 [4] is greater than 50 µM.
The like results for `COc1cc(/C=C/c2cccc(C(F)(F)F)c2)cc(OC)c1` were, in that order, 109%, 17.66 µM, 14.1% and greater than 50 µM.
The like results for `Oc1cccc(/C=C/c2cc(O)cc(O)c2)c1` were, in that order, 110%, 15.88 µM, 22.8% and 54 µM.
Taken in the same sequence, the figures for `COc1cc(/C=C/c2cccnc2)cc(OC)c1` were 97.7%, 15.94 µM, 22.5% and greater than 50 µM.
As for `COc1cc(/C=C/c2ccc(C(C)(C)C)cc2)cc(OC)c1`, the viability at 50 µM in [1] was determined as 99.3%. Further, the Activity in the data set with RAW264.7 [2] worked out at 17.68 µM. The inhibition at 50 µM in the data set with RAW264.7 [3] amounted to 14%. In addition, the IC50 in the data set with RAW264.7 [4] is greater than 50 µM.
